Test results: patent publication US11180494B2, “Substituted amino acids as integrin inhibitors” (Pliant Therapeutics, Inc., priority 2018, dated 2021)

target: human integrin αvβ6 (Homo sapiens (Human), UniProt P06756+P18564); test: Proximity-based integrin receptor binding assay (ALPHASCREEN) for inhibitor potency; conditions: inhibition of binding of TGF-b1 LAP to human integrin αvβ6; values given in ranges
Outline: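 AlphaScreen: integrin, compound, TGF-b1 LAP, biotinylated anti-LAP antibody and acceptor beads incubated 2 hours, then streptavidin donor beads 30 minutes, at room temperature in 50 mM Tris-HCl pH 7.5, 0.1% BSA, 1 mM CaCl2 and MgCl2. Excitation 680 nm, emission 520-620 nm; IC50 by four-parameter logistic fit.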

Chain of human integrin αvβ6 (P06756 31-992): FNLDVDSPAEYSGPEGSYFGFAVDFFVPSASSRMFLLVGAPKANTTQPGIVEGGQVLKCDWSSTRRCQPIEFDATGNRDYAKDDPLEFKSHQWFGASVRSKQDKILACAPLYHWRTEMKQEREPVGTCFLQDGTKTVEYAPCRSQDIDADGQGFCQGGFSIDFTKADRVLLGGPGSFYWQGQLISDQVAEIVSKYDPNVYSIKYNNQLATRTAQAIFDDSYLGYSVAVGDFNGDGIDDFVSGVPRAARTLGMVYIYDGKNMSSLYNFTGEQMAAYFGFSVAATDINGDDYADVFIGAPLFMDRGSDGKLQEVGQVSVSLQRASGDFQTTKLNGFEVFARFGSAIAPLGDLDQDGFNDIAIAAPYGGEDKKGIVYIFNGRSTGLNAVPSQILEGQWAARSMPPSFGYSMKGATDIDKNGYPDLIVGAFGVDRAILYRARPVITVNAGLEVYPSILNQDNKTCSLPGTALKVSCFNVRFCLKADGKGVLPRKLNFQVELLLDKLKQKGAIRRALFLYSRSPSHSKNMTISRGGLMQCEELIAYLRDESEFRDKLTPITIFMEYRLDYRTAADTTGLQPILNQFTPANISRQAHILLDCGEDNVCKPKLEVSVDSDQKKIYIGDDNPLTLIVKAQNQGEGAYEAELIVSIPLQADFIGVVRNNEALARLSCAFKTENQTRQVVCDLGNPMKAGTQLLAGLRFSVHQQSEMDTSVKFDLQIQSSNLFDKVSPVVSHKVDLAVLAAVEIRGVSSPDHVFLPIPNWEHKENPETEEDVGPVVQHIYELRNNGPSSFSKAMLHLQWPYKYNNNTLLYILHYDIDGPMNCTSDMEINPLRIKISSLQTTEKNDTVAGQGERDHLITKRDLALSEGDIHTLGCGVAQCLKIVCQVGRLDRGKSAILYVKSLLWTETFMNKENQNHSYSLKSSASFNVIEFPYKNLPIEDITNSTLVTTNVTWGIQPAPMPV
Chain of human integrin αvβ6 (P18564 22-707): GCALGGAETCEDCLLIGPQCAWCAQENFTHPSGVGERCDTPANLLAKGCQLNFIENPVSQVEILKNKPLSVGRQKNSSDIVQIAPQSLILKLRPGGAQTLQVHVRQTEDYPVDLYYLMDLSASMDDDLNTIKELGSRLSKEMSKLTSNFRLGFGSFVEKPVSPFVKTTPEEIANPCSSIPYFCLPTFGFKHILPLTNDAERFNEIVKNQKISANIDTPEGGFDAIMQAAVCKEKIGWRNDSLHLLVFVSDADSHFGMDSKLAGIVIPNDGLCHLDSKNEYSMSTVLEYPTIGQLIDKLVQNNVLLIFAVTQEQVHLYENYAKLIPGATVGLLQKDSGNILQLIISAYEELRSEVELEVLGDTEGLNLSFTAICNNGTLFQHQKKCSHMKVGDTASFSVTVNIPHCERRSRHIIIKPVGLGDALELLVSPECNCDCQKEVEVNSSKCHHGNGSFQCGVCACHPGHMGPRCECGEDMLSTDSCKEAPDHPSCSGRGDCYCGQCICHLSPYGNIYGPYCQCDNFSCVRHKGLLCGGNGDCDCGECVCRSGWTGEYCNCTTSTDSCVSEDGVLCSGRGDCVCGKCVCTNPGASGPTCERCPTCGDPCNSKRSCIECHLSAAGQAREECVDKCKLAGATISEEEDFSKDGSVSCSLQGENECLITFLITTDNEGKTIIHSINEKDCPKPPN

| Structure (SMILES) | IC50 |
| --- | --- |
| CC1(CC(=O)N[C@@H](CCO[C@H]2C[C@H](CCc3ccc4c(n3)NCCC4)C2)C(=O)O)CC1 [Compound 125, N-(2-(1-methylcyclopropyl)acetyl)-O-(trans-3-(2-(5,6,7,8-tetrahydro-1,8-naphthyridin-2-yl)ethyl)cyclobutyl)homoserine] | 0.05 to 0.25 µM |
| O=C(CC1CC1)N[C@@H](CCO[C@H]1C[C@H](CCc2ccc3c(n2)NCCC3)C1)C(=O)O [Compound 126, N-(2-cyclopropylacetyl)-O-(trans-3-(2-(5,6,7,8-tetrahydro-1,8-naphthyridin-2-yl)ethyl)cyclobutyl)homoserine] | < 0.05 µM |
| CC(C)(C)OC(=O)N1CC(C)(OC(=O)N[C@@H](CCO[C@H]2C[C@H](CCc3ccc4c(n3)NCCC4)C2)C(=O)O)C1 [Compound 127, N-(((1-(tert-butoxycarbonyl)-3-methylazetidin-3-yl)oxy)carbonyl)-O-(trans-3-(2-(5,6,7,8-tetrahydro-1,8-naphthyridin-2-yl)ethyl)cyclobutyl)homoserine] | < 0.05 µM |
| CC1(OC(=O)N[C@@H](CCO[C@H]2C[C@H](CCc3ccc4c(n3)NCCC4)C2)C(=O)O)CN(S(C)(=O)=O)C1 [Compound 128, N-(((3-methyl-1-(methylsulfonyl)azetidin-3-yl)oxy)carbonyl)-O-(trans-3-(2-(5,6,7,8-tetrahydro-1,8-naphthyridin-2-yl)ethyl)cyclobutyl)homoserine] | 0.05 to 0.25 µM |
| CC(=O)N1CC(C)(OC(=O)N[C@@H](CCO[C@H]2C[C@H](CCc3ccc4c(n3)NCCC4)C2)C(=O)O)C1 [Compound 129, N-(((1-acetyl-3-methylazetidin-3-yl)oxy)carbonyl)-O-(trans-3-(2-(5,6,7,8-tetrahydro-1,8-naphthyridin-2-yl)ethyl)cyclobutyl)homoserine] | 0.05 to 0.25 µM |
| CC1(OC(=O)N[C@@H](CCO[C@H]2C[C@H](CCc3ccc4c(n3)NCCC4)C2)C(=O)O)CNC1 [Compound 130, N-(((3-methylazetidin-3-yl)oxy)carbonyl)-O-(trans-3-(2-(5,6,7,8-tetrahydro-1,8-naphthyridin-2-yl)ethyl)cyclobutyl)homoserine] | 0.05 to 0.25 µM |
| O=C(N[C@@H](CCO[C@H]1C[C@H](CCc2ccc3c(n2)NCCC3)C1)C(=O)O)OC1CCCCC1 [Compound 131, N-((cyclohexyloxy)carbonyl)-O-(trans-3-(2-(5,6,7,8-tetrahydro-1,8-naphthyridin-2-yl)ethyl)cyclobutyl)homoserine] | < 0.05 µM |
| CC(C)COC(=O)N[C@@H](CCO[C@H]1C[C@H](CCc2ccc3c(n2)NCCC3)C1)C(=O)O [Compound 132, N-(isobutoxycarbonyl)-O-(trans-3-(2-(5,6,7,8-tetrahydro-1,8-naphthyridin-2-yl)ethyl)cyclobutyl)homoserine] | 0.05 to 0.25 µM |
| CC(C)(C)OC(=O)N1CC[C@H](OC(=O)N[C@@H](CCO[C@H]2C[C@H](CCc3ccc4c(n3)NCCC4)C2)C(=O)O)C1 [Compound 133, N—((((S)-1-(tert-butoxycarbonyl)pyrrolidin-3-yl)oxy)carbonyl)-O-(trans-3-(2-(5,6,7,8-tetrahydro-1,8-naphthyridin-2-yl)ethyl)cyclobutyl)homoserine] | < 0.05 µM |
| O=C(N[C@@H](CCO[C@H]1C[C@H](CCc2ccc3c(n2)NCCC3)C1)C(=O)O)O[C@H]1CCNC1 [Compound 134, N—((((S)-pyrrolidin-3-yl)oxy)carbonyl)-O-(trans-3-(2-(5,6,7,8-tetrahydro-1,8-naphthyridin-2-yl)ethyl)cyclobutyl)homoserine] | 0.05 to 0.25 µM |
| CS(=O)(=O)CCCC(=O)N[C@@H](CCO[C@H]1C[C@H](CCc2ccc3c(n2)NCCC3)C1)C(=O)O [Compound 135, N-(4-(methylsulfonyl)butanoyl)-O-(trans-3-(2-(5,6,7,8-tetrahydro-1,8-naphthyridin-2-yl)ethyl)cyclobutyl)homoserine] | 0.05 to 0.25 µM |
| CC(C)(C)OC(=O)N1CC[C@@H](OC(=O)N[C@@H](CCO[C@H]2C[C@H](CCc3ccc4c(n3)NCCC4)C2)C(=O)O)C1 [Compound 138, N—((((R)-1-(tert-butoxycarbonyl)pyrrolidin-3-yl)oxy)carbonyl)-O-(trans-3-(2-(5,6,7,8-tetrahydro-1,8-naphthyridin-2-yl)ethyl)cyclobutyl)homoserine] | 0.05 to 0.25 µM |
| O=C(NC(CCO[C@H]1C[C@H](CCc2ccc3c(n2)NCCC3)C1)C(=O)O)OC1CCC1c1ccccc1 (stereo partly drawn) [Compound 142, N-((2-phenylcyclobutoxy)carbonyl)-O-(trans-3-(2-(5,6,7,8-tetrahydro-1,8-naphthyridin-2-yl)ethyl)cyclobutyl)homoserine] | 0.05 to 0.25 µM |
| O=C(N[C@@H](CCO[C@H]1C[C@H](CCc2ccc3c(n2)NCCC3)C1)C(=O)O)O[C@H]1C[C@@H](c2ccccc2)C1 [Compound 143, N-((cis-3-phenylcyclobutoxy)carbonyl)-O-(trans-3-(2-(5,6,7,8-tetrahydro-1,8-naphthyridin-2-yl)ethyl)cyclobutyl)homoserine] | 0.25 to 1 µM |

Now from value to compound:

| IC50 | Structure (SMILES) |
| --- | --- |
| < 0.05 µM | CS(=O)(=O)N1CC[C@H](OC(=O)N[C@@H](CCO[C@H]2C[C@H](CCc3ccc4c(n3)NCCC4)C2)C(=O)O)C1 [Compound 136, N—((((S)-1-(methylsulfonyl)pyrrolidin-3-yl)oxy)carbonyl)-O-(trans-3-(2-(5,6,7,8-tetrahydro-1,8-naphthyridin-2-yl)ethyl)cyclobutyl)homoserine] |
| 0.25 to 1 µM | CC(=O)N1CC[C@H](OC(=O)N[C@@H](CCO[C@H]2C[C@H](CCc3ccc4c(n3)NCCC4)C2)C(=O)O)C1 [Compound 137, N—((((S)-1-acetylpyrrolidin-3-yl)oxy)carbonyl)-O-(trans-3-(2-(5,6,7,8-tetrahydro-1,8-naphthyridin-2-yl)ethyl)cyclobutyl)homoserine] |
| > 1 µM | CC(=O)N1CC[C@@H](OC(=O)N[C@@H](CCO[C@H]2C[C@H](CCc3ccc4c(n3)NCCC4)C2)C(=O)O)C1 [Compound 139, N—((((R)-1-acetylpyrrolidin-3-yl)oxy)carbonyl)-O-(trans-3-(2-(5,6,7,8-tetrahydro-1,8-naphthyridin-2-yl)ethyl)cyclobutyl)homoserine] |
| 0.25 to 1 µM | C[C@@H](OC(=O)N[C@@H](CCO[C@H]1C[C@H](CCc2ccc3c(n2)NCCC3)C1)C(=O)O)c1ccccc1 [Compound 140, N—(((R)-1-phenylethoxy)carbonyl)-O-(trans-3-(2-(5,6,7,8-tetrahydro-1,8-naphthyridin-2-yl)ethyl)cyclobutyl)homoserine] |
| < 0.05 µM | C[C@H](OC(=O)N[C@@H](CCO[C@H]1C[C@H](CCc2ccc3c(n2)NCCC3)C1)C(=O)O)c1ccccc1 [Compound 141, N—(((S)-1-phenylethoxy)carbonyl)-O-(trans-3-(2-(5,6,7,8-tetrahydro-1,8-naphthyridin-2-yl)ethyl)cyclobutyl)homoserine] |
| 0.25 to 1 µM | O=C(N[C@@H](CCO[C@H]1C[C@H](CCc2ccc3c(n2)NCCC3)C1)C(=O)O)O[C@@H]1CCCC[C@H]1c1ccccc1 [Compound 144, N-((((1R,2S)-2-phenylcyclohexyl)oxy)carbonyl)-O-(trans-3-(2-(5,6,7,8-tetrahydro-1,8-naphthyridin-2-yl)ethyl)cyclobutyl)homoserine] |
| 0.05 to 0.25 µM | O=C(N[C@@H](CCO[C@H]1C[C@H](CCc2ccc3c(n2)NCCC3)C1)C(=O)O)O[C@H]1CCCC[C@@H]1c1ccccc1 [Compound 146, N-((((1S,2R)-2-phenylcyclohexyl)oxy)carbonyl)-O-(trans-3-(2-(5,6,7,8-tetrahydro-1,8-naphthyridin-2-yl)ethyl)cyclobutyl)homoserine] |
